Where two headings read alike, the source gives them in different places.
Experiments:
P-glycoprotein = P-glycoprotein (Homo sapiens, UniProt P08183); assay: in vitro
Experimental: (§1) These enzymes were stored at −80°C. Superoxide dismutase (SOD) and catalase are products of Sigma.

UGT1A6 [1] = target: T1, UGT1A6 (Homo sapiens, UniProt P19224); assay: Inhibition of UGT1A6 activity (glucuronidation of p-nitrophenol) in pooled human liver microsomes; conditions: for Difference of UGT1A6 activity between dark and light: 0.3 mM p-NP
T1 sequence (P19224 27-532): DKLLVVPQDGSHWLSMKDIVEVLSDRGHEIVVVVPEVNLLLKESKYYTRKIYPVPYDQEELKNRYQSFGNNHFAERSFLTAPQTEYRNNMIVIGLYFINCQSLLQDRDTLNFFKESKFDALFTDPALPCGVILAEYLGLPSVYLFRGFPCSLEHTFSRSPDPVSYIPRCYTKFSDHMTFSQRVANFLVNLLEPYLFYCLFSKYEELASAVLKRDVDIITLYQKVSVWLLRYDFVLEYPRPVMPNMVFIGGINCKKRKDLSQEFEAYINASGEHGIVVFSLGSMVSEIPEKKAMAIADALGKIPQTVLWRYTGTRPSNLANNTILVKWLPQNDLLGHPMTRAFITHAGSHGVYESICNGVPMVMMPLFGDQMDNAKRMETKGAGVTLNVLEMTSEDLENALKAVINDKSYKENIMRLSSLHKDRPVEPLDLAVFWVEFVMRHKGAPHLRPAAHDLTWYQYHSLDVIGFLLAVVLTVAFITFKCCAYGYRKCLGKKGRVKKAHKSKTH
Experimental: (§2) The enzyme source to measure CYP2A6, CYP3A4, and UGT1A6 activities was pooled human liver microsomes (HLMs), purchased from Gentest (Woburn, MA, USA). […] These enzymes were stored at −80°C.
(§3) The microassay method of UGT activity in this study was carried out according to previous reports [5, 51]. […] In order to investigate the role of reactive oxygen species on the inhibition of UGT1A6 by dyes, we studied the effect of SOD and catalase.
(§4) The inhibition of UGT1A6 activity with p-nitrophenol [5] and of UGT2B7 with androsterone by dyes was studied.

CYP3A4 = target: T2, CYP3A4 (Homo sapiens, UniProt P08684); assay: Inhibition of CYP3A4 activity in pooled human liver microsomes (7-benzoyloxy-4-(trifluoromethyl)-coumarin substrate); assay type: biochemical; conditions: for IC50: pooled human liver microsomes
T2 construct: pooled human liver microsomes (HLMs), purchased from Gentest; tissue Gentest (Woburn, MA, USA); host or cells: pooled human liver microsomes
Experimental: as §1
CYP3A4 is a major enzyme among phase I drug-metabolizing enzymes and reacts with half of all drugs. To determine the influence of CYP3A4 activity by food dyes, the color of dyes influencing the fluorometric measurement over 30 μM dye concentration was measured. This background was subtracted from the measurement of color pigments.

UGT2B7 = target: T3, UGT2B7 (Homo sapiens, UniProt P16662); assay: Inhibition of UGT2B7 activity (glucuronidation of androsterone), Sf9 cell membrane; assay type: biochemical
T3 construct: purchased Gentest; host or cells: Sf9 cells, baculovirus expression system
T3 sequence (P16662 24-529): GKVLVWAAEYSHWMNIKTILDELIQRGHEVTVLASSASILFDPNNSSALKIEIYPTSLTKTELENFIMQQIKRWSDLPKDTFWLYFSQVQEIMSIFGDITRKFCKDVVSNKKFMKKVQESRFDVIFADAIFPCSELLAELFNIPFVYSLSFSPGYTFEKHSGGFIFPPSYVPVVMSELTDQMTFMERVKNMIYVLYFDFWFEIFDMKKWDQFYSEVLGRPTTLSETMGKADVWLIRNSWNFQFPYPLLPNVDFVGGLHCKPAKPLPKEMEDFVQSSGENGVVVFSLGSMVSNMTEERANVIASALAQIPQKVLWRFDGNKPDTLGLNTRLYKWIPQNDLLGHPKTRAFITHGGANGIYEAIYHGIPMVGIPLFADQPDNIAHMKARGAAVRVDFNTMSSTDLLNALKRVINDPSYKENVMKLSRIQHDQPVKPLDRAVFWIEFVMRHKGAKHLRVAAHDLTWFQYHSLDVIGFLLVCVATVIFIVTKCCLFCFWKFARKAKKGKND
Experimental: as §1

[2] = target: P-glycoprotein (ATPase activity) (Homo sapiens, UniProt P08183); assay: in vitro; conditions: human
Experimental: as §1

UGT1A6 [3] = target: T1, UGT1A6; assay: in vitro
Experimental: as §2, §3, §4

[4] = read-out: IC50 value P-glycoprotein, ATPase activity of P-gp membrane
[5] = human, pooled human liver microsomes, probe p-nitrophenol
[6] = human, probe 7-benzoyloxy-4-(trifluoromethyl)-coumarin
[7] = glucuronidation inhibition by RB

Sequence of P-glycoprotein (P08183 whole entry): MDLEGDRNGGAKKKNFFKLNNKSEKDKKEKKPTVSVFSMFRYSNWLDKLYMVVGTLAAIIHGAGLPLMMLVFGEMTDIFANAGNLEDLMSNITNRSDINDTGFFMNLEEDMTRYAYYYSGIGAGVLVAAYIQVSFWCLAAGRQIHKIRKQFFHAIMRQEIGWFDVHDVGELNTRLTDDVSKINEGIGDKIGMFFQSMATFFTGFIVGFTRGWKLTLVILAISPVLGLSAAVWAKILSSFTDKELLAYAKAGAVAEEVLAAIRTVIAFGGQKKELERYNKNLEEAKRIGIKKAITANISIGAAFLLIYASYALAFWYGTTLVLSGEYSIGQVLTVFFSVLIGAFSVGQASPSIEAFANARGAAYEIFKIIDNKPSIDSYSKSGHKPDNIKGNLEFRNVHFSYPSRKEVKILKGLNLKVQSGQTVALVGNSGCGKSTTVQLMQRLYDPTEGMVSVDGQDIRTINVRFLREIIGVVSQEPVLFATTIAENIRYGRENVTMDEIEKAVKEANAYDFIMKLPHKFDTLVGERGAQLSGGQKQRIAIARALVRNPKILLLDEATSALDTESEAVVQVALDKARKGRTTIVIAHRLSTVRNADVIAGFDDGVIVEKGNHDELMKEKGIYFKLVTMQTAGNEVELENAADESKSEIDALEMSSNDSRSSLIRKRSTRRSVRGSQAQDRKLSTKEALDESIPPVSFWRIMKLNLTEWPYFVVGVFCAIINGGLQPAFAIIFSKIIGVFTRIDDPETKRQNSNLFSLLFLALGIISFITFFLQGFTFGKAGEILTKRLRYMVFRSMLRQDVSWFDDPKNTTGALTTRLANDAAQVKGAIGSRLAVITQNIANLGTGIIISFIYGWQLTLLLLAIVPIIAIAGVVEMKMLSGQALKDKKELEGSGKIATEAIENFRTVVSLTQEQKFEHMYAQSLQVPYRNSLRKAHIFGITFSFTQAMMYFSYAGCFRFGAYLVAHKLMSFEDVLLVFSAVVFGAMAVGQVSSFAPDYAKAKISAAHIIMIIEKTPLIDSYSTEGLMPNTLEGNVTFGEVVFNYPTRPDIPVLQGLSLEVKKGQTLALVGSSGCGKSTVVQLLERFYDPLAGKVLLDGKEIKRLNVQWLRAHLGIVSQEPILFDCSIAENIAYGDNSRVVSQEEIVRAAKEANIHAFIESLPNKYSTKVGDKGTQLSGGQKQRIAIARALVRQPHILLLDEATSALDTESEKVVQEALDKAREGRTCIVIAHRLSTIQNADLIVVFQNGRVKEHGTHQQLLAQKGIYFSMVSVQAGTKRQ
T2 sequence (P08684 whole entry): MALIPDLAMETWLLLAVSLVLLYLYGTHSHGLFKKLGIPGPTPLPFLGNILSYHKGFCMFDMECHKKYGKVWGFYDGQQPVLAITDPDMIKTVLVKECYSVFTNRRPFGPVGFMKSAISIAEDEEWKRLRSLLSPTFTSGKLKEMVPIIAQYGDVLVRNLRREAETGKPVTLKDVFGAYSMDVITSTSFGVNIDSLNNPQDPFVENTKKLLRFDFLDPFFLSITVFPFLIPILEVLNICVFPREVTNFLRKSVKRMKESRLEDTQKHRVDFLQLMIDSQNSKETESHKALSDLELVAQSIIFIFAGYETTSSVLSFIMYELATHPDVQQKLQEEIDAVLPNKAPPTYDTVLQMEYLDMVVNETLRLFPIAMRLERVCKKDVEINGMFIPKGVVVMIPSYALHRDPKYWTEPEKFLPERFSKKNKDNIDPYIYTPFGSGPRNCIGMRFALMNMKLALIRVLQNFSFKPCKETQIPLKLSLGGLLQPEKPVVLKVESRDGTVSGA
Sequence of P-glycoprotein (ATPase activity) (P08183 whole entry): as the sequence (P08183 whole entry) above

With `COc1cc(S(=O)(=O)[O-])c(C)cc1N=Nc1c(O)ccc2cc(S(=O)(=O)[O-])ccc12.[Na+].[Na+]` [Allura red (AL), allura red] the IC50 (P-glycoprotein; [4]) was > 1000 µM, the “Inhibition of UGT1A6 activity (in words)” value (UGT1A6 [1]) was “insignificant inhibition” and the IC50 (CYP3A4) was > 1000 µM.

In the case of `O=S(=O)([O-])c1ccc2c(N=Nc3ccc(S(=O)(=O)[O-])c4ccccc34)c(O)c(S(=O)(=O)[O-])cc2c1.[Na+].[Na+].[Na+]` [Amaranth (AM), amaranth], the IC50 (P-glycoprotein) is reported as > 1000 µM, the “Inhibition of UGT1A6 activity (in words)” value (UGT1A6 [1]) is reported as “insignificant inhibition” and the “Inhibition of CYP3A4 (in words)” value (CYP3A4) is reported as “noninhibition”. The IC50 (CYP3A4) was > 1000 µM.

For `CCN(Cc1cccc(S(=O)(=O)[O-])c1)c1ccc(C(=C2C=CC(=[N+](CC)Cc3cccc(S(=O)(=O)[O-])c3)C=C2)c2ccccc2S(=O)(=O)[O-])cc1.[Na+].[Na+]` [Brilliant blue FCF (BB), brilliant blue FCF], the IC50 (P-glycoprotein) was > 1000 µM, the “Inhibition of UGT1A6 activity (in words)” value (UGT1A6 [1]) was “insignificant inhibition” and the IC50 (CYP3A4) was > 1000 µM.

`O=C(O)c1cc(N=C=S)ccc1-c1c2cc(Br)c(=O)c(Br)c-2oc2c(Br)c(O)c(Br)cc12` [Dye E5ic, Eosin-5-isothiocyanate, reference compound] gave an IC50 (UGT1A6 [1]; [5]) of 70 µM.

`O=C1OC2(c3ccccc31)c1cc(I)c(O)c(I)c1Oc1c2cc(I)c(O)c1I` [Erythrosine B (ET), erythrosine] was tested, and the IC50 (P-glycoprotein) was 15.6 µM, the “Inhibition of P-gp (in words)” value (P-glycoprotein) was “well inhibited” and the “Type of inhibition of UGT2B7” value (UGT2B7) was “non-competitive”. For the same compound, the “Inhibition of UGT2B7 (in words)” value (UGT2B7; androsterone glucuronidation) was “inhibited”, the IC50 (UGT1A6 [1]) was 50 µM and the “Inhibition of UGT1A6 activity (in words)” value (UGT1A6 [1]) was “greatest inhibition”. For the same compound, the “Substrate activity for UGT1A6” value (UGT1A6 [1]) was “no substrate activity”, the “Type of inhibition of UGT1A6 (Lineweaver-Burk plots)” value (from here on “Type of inhibition of UGT1A6”) (UGT1A6 [1]) was “non-competitive” and the IC50 (UGT1A6 [1]; [5]) was 70 µM. For the same compound, the “Inhibition of CYP3A4 at 30 μM” value (CYP3A4; 30 μM dye) was “completely inhibited”.

`O=C1/C(=C2\Nc3ccc(S(=O)(=O)[O-])cc3C2=O)Nc2ccc(S(=O)(=O)[O-])cc21.[Na+].[Na+]` [Indigo carmine (ID), indigo carmine] was tested, and the IC50 (P-glycoprotein) was > 1000 µM, the “Inhibition of UGT1A6 activity (in words)” value (UGT1A6 [1]) was “no inhibition” and the IC50 (CYP3A4) was > 1000 µM.

`[N-]=[N+]=[N-].[Na+]` [NaN3, reference compound] was tested, and the “Prevention of RB inhibition of UGT1A6 by 1O2 quencher” value (“Prevention of RB inhibition of UGT1A6” for short) (UGT1A6 [1]) was “significantly prevented” and the “Inhibition of glucuronidation of p-NP by UGT1A6 by quencher itself” value (from here on “Inhibition of glucuronidation of p-NP”) (UGT1A6 [1]; 1 to 20 mM) was “no inhibition”.

For `O=S(=O)(O)c1cc(S(=O)(=O)O)c2c(N=Nc3ccc(S(=O)(=O)O)c4ccccc34)c(O)ccc2c1` [New coccine (NC), new coccine], the IC50 (P-glycoprotein; [4]) was > 1000 µM, the IC50 (UGT1A6 [1]; read-out: IC50 value UGT1A6, pooled human liver microsomes, p-nitrophenol glucuronidation) was > 1000 µM and the IC50 (CYP3A4) was > 1000 µM.

In the case of `O=C(O)c1c(Cl)c(Cl)c(Cl)c(Cl)c1-c1c2cc(Br)c(=O)c(Br)c-2oc2c(Br)c(O)c(Br)cc12` [Phloxine (PL), phloxine], the IC50 [2] is reported as 24.5 µM, the “Inhibition of P-gp (in words)” value (P-glycoprotein) is reported as “well inhibited” and the “Type of inhibition of UGT2B7” value (UGT2B7) is reported as “non-competitive”. For the same compound, the “Type of inhibition of UGT1A6” value (UGT1A6 [1]) was “non-competitive”, the IC50 (UGT1A6 [3]) was 40 µM and the “Inhibition of CYP3A4 (in words)” value (CYP3A4) was “showed inhibition”. The IC50 (CYP3A4; [6]) was 5.6 µM.

`O=C(O)c1c(Cl)c(Cl)c(Cl)c(Cl)c1-c1c2cc(I)c(=O)c(I)c-2oc2c(I)c(O)c(I)cc12` [Rose Bengal (RB), rose bengal] was tested, and the IC50 [2] was 11.7 µM, the “Inhibition of P-gp (in words)” value (P-glycoprotein) was “well inhibited” and the “Type of inhibition of UGT2B7” value (UGT2B7) was “non-competitive”. The “Type of inhibition of UGT1A6” value (UGT1A6 [1]) was “non-competitive”, the “Difference of UGT1A6 activity between dark and light” value (UGT1A6 [1]; 0.1 mM RB) was “could not find a significant difference” and the “Difference of UGT1A6 activity between dark and light” value (UGT1A6 [1]; 0.01, 0.02, and 0.05 mM RB) was “significant difference”. For the same compound, the “UGT1A6 activity in D2O relative to H2O in presence of RB” value (UGT1A6 [1]; D2O solution versus water) was “approximately half”, the IC50 (UGT1A6 [1]; [5]) was 15 µM and the “Inhibition of CYP3A4 (in words)” value (CYP3A4) was “showed inhibition”. For the same compound, the IC50 (CYP3A4; [6]) was 21.2 µM.

`O=S(=O)([O-])c1ccc(N=Nc2c(O)ccc3cc(S(=O)(=O)[O-])ccc23)cc1.[Na+].[Na+]` [Sunset yellow FCF (SY), sunset yellow FCF] was tested, and the IC50 (P-glycoprotein; [4]) was > 1000 µM, the “Inhibition of UGT1A6 activity (in words)” value (UGT1A6 [1]) was “no inhibition” and the IC50 (CYP3A4) was > 1000 µM.

In the case of `O=C([O-])C1=NN(c2ccc(S(=O)(=O)[O-])cc2)C(=O)C1N=Nc1ccc(S(=O)(=O)[O-])cc1.[Na+].[Na+].[Na+]` (stereo not drawn) [Tartrazine (TT), tartrazine], the IC50 (P-glycoprotein) is reported as > 1000 µM, the “Inhibition of UGT1A6 activity (in words)” value (UGT1A6 [1]) is reported as “no inhibition” and the IC50 (CYP3A4) is reported as > 1000 µM.

In the case of `O=C(O)c1ccccc1-c1c2ccc(=O)cc-2oc2cc(O)ccc12` [Uranine, reference compound], the “Inhibition of UGT1A6 activity (in words)” value (UGT1A6 [1]) is reported as “did not inhibit” and the IC50 (UGT1A6 [1]; [5]) is reported as > 1000 µM.

`c1ccc2c(c1)Cc1ccccc1O2` [Xanthene] was tested, and the IC50 (UGT1A6 [1]) was > 1000 µM and the “Inhibition of UGT1A6 activity (in words)” value (UGT1A6 [1]) was “did not inhibit”.

`N[C@@H](Cc1c[nH]cn1)C(=O)O` [histidine, reference compound] was tested, and the “Inhibition of glucuronidation of p-NP” value (UGT1A6 [1]; 1 to 20 mM) was “no inhibition” and the “Prevention of RB inhibition of UGT1A6” value (UGT1A6 [1]; [7]) was “significantly prevented”.

In the case of `CC(=O)N(CC(O)CN(C(C)=O)c1c(I)c(C(=O)NCC(O)CO)c(I)c(C(=O)NCC(O)CO)c1I)c1c(I)c(C(=O)NCC(O)CO)c(I)c(C(=O)NCC(O)CO)c1I` (stereo not drawn) [iodixanol, reference compound], the “Inhibition of UGT1A6 activity (in words)” value (UGT1A6 [1]) is reported as “no inhibition”.

With `CNC(=O)c1c(I)c(NC(C)=O)c(I)c(C(=O)O)c1I.CNC[C@H](O)[C@@H](O)[C@H](O)[C@H](O)CO` [meglumine iotalamate, reference compound] the “Inhibition of UGT1A6 activity (in words)” value (UGT1A6 [1]) was “no inhibition”.

With `CCN(CC)c1ccc2c(-c3ccccc3C(=O)O)c3ccc(=[N+](CC)CC)cc-3oc2c1` [rhodamine, reference compound] the IC50 (UGT1A6 [1]) was > 1000 µM and the “Inhibition of UGT1A6 activity (in words)” value (UGT1A6 [1]) was “did not inhibit”.

In the case of `CC(=O)Nc1c(I)c(NC(C)=O)c(I)c(C(=O)[O-])c1I.[Na+]` [sodium diatrizoate, reference compound], the “Inhibition of UGT1A6 activity (in words)” value (UGT1A6 [1]) is reported as “no inhibition”.

For `CC1=C(/C=C/C(C)=C/C=C/C(C)=C/C=C/C=C(C)/C=C/C=C(C)/C=C/C2=C(C)CCCC2(C)C)C(C)(C)CCC1` [β-carotene, reference compound], the “Inhibition of glucuronidation of p-NP” value (UGT1A6 [1]; 0.2–0.5 mM) was “no inhibition” and the “Prevention of RB inhibition of UGT1A6” value (UGT1A6 [1]; [7]) was “did not”.

In the case of catalase, the “Prevention of ET inhibition of UGT1A6” value (UGT1A6 [1]; added to the mixture of UGT1A6 inhibition by ET) is reported as “no prevention”.

From article PMC2778353, “Toxicity of Xanthene Food Dyes by Inhibition of Human Drug-Metabolizing Enzymes in a Noncompetitive Manner” (Journal of Environmental and Public Health, 2009)
